Test results reported in patent publication US20220411847A1, “GLUCOSE/GALACTOSE BIOSENSORS AND METHODS OF USING SAME” (Duke University, priority 2015, published 2022).

What was measured:
[1] = Isothermal glucose titrations from fluorescent landscapes (Roche LightCycler); format: binding
Experimental: (§1) The titration series were mixed with GGBP183C⋅acrylodan or BD_SM4⋅acrylodan conjugates in 384-well microtiter plates. The temperature dependence of the titrations was measured in a real-time PCR machine (Roche LightCycler 480) by determining the ratio of fluorescence emission intensities at 488, 510, and 580 nm (excitation at 440 nm) as a function of temperature (290-370K). Temperatures were advanced in 1K steps. At each temperature data was collected for at 1-second intervals for 60 seconds at which point the signal had relaxed to a steady value associated with the new temperature. Collection times were adjusted to minimize photobleaching (which was not detectable under these experimental conditions). Data reduction software was developed to convert these observations into time-independent datasets that record fluorescence as a function of temperature for each well and associate wells with their concentration of titrant and additive. Management tools were developed to maintain a database of titrations and their analyses.
The response of acrylodan to glucose binding was separated from the effects of thermal denaturation by extracting binding isotherms within the temperature range where the apo-protein remains >99% folded (T<320 K; FIG. 7). Within this temperature range, binding isotherms were constructed by extracting fluorescence values across different wells, each containing different glucose concentrations, at a given temperature, and fit individually with high accuracy to isotherms (FIG. 8):
using linear baselines which vary individually in accordance with the tilt of the S, S1, and S2 baseplanes that correspond the saturated glucose complex. The individually fit Kd(T) values were converted into ΔGb(T) and fit to the Gibbs-Helmholtz equation 9 (FIG. 9).
(§2) Analysis of mutant affinity values: Isothermal glucose titrations were extracted from the fluorescent landscape or emission datasets as described above. Monochromatic emission intensities Iλ. (these intensities correspond to a bandpass intensity recorded with a physical filter in the case of the Roche LightCycler) were fit to
(§3) where ^apoIλ2 ^apoIλ2 and ^satIλ2^satIλ2 are the emission intensities of the monochromatic signal at wavelength λ2λ2 of the ligand-free and ligand-bound protein, respectively. Equation 28 illustrates that the ^appKd ^appKd values obtained by fits of 25 to ratiometric signals are wavelength dependent. To obtain wavelength-independent values needed for comparison of mutant proteins, it is necessary to simultaneously fit ^appKd ^appKd to the ratiometric signal and ^trueKd ^trueKd to the two monochromatic signals. For a given isothermal titration, values for ^appKd ^appKd and ^trueKd ^trueKd were obtained using a non-linear fitting algorithm in which these two parameters were simultaneously fit to the three experimental binding isotherms using equations 23 and 27, with the two monochromatic isotherms sharing the same ^trueKd ^trueKd value. Three separate pairs of linear ^apoβ ^apoβ and ^satβ ^satβ baselines were fit in this procedure. TABLES 1-5 record the ^trueKd ^trueKd values at 25° C., obtained by analysis of Roche LightCycler data in 488 nm and 510 nm channels. The uncertainty of the fit (‘error’) was obtained using a boot-strapping technique in which 37% of the data was replicated. In all cases, no binding was recorded if one of ^appKd ^appKd or ^trueKd ^trueKd exceeded 200 mM. The glucose constant of GGBP183 C-acrylodan is 4.21±0.08 mM at 25° C.

[2] = Glucose titration at room temperature on Nanodrop3300 fluorimeter; format: binding
Experimental: (§4) In addition to the Roche LightCycler, which has a limited choice of emission wavelengths, data for selected mutants also was measured at room temperature on a Nanodrop3300 (Thermo Scientific) fluorimeter, which records full emission spectra. Emission intensities at a particular wavelength were extracted by integration of the spectral emission intensities over a 20-nm interval centered on that wavelength.
(§5) Signals S (either single-wavelength emission intensities, LT, or ratios of intensities at two wavelengths, Rig) were fit to ligand-binding isotherms:
(§6) where [L] is the ligand concentration and Kd the dissociation constant corresponding to ^appKd or ^trueKd for fits to R12 (weighted by the relative contributions of ^satβ at the two different wavelengths) and Iλ respectively. For a given isothermal titration, values for ^appKd and ^true Kd were obtained using a non-linear fitting algorithm in which these two parameters were simultaneously fit to the three experimental binding isotherms using equations 29 and 30, with the two monochromatic isotherms sharing the same ^trueKd value. Three separate pairs of ^apoβ and ^satβ were fit in this procedure.

[3] = Isothermal glucose titrations from fluorescent landscapes (Roche LightCycler); format: binding; remark: listed apart in the source
[4] = Ca2+ binding followed through thermal stability shifts in the absence of glucose; settings: 37° C.
From the text: GGBP binds Ca^2+ at a location remote from glucose (FIG. 1). The binding of Ca^2+ was investigated in the absence of glucose (FIG. 12). […] Nevertheless, Ca^2+ binding can be followed through its effect on protein stability (FIG. 13). […] However, at elevated concentrations, this stabilization effect levels off and addition of Ca^2+ becomes destabilizing. […] These effects can be modeled accurately by a fit of the ligand- and temperature-dependent free energy of stability for Ca^2+ (Judge et al. Diabetes Technol. Thera. 2011, 13, 309-317; Layton et al. Biochemistry 2010, 49, 10831-10841). The individual terms are cast in terms of T and [Ca^2+] using equations 4-9. However, rather than fitting fluorescent landscape data directly using 1, Tm and ΔHu, values are extracted at each Ca^2+ concentration using 16 and 17, and fit to the equation system by determining the root of 19 to obtain the calculated Tm value.

[5] = Fluorescence emission response to ligand binding; set-up: key to Response Intensity^c: +, increases in response to ligand; —: decreases; 0, no change in the glucose titration; key to Response Shape^b: m, monochromatic; d, dichromatic (i.e. spectral shape changes); 0, no change in the glucose titration; settings: for Response Intensity^c / Response Shape^b: glucose titration, Nanodrop3300, room temperature
Experimental: as §1, §4

[6] = Galactose titration at room temperature on Nanodrop3300 fluorimeter; format: binding; settings: ^e noisy data
Experimental: as §4, §5, §6

[7] = Thermal denaturation followed by fluorescence ratio, two-state fit; format: physicochemical; settings: for Tm/K: thermal stability of the 183C acrylodan conjugate mutant
Experimental: as §1
Fits of these equation systems to experimental observations such as shown in FIG. 5 require good initial estimates of the parameters. These can then be refined using multi-dimensional conjugate gradient methods. To obtain local fits for protein thermostability in the absence of ligand we solve
This gives excellent fits (FIG. 7).

[8] = Galactose affinities of the mutants that bind glucose (Roche LightCycler); format: binding; settings: trueKd at 25° C., 183C acrylodan conjugates, read-out: Kd^298K(galactose)/mM
From the text: as §2, §3
The galactose affinities for those mutants that bind glucose were also determined.

[9] = apparent, ratiometric signal at the listed wavelength pair, read-out: Affinities (mM)^d Glucose aPPKa
[10] = from monochromatic signals, read-out: Affinities (mM)^d Glucose trueKa
[11] = apparent, ratiometric signal at the listed wavelength pair, read-out: Affinities (mM)^d Galactose ^appKd
[12] = from monochromatic signals, read-out: Affinities (mM)^d Galactose ^trueKd
[13] = trueKd at 25° C., 183C acrylodan conjugates, LightCycler 488 nm and 510 nm channels, ± = bootstrap uncertainty of fit, read-out: Kd^298K(glucose)/mM
[14] = 37° C., mutations in GGBP183C⋅acrylodan, read-out: glucose Kd values at 37° C.

Row | Substance | Kd ([1]; 25° C., read-out: glucose constant) | Kd [2, 9] | Kd [2, 10] | Kd ([3]; 37° C. (310K), fit of equation 18, read-out: Kd, glucose binding isotherm) | Kd ([4]; read-out: Ca^2+ affinity in the native state at a single site) | Kd ([4]; read-out: calculated Kd for Ca2+, single folded state site) | Kd ([4]; read-out: calculated Kd for Ca2+, single, medium-affinity denatured state) | Kd ([4]; read-out: calculated Kd for Ca2+, two, low-affinity denatured states) | Response Intensity^c [5] | Response Shape^b [5] | Kd [6, 11] | Kd [6, 12] | Kd [8] | Kd [1, 13] | Kd [3, 14] | effect of glucose binding on fluorescence ([5]; 488/580 ratio) | decrease in the affinity for glucose compared to the wild-type protein [1] | apoTm ([7]; apo-protein, two-state fit) | ΔapoHu ([7]; apo-protein, two-state fit) | Tm/K [7]
1 | GGBP183C⋅acrylodan: E. coli glucose-galactose binding protein W183C mutant conjugated to acrylodan; parent sensor | 4.21 ± 0.08 mM | 6 mM | 4.4 mM | 6.58 ± 0.03 mM | ~0.01 µM | 0.0108 µM | 370 µM | 8800 µM | — | d | 31 mM | 24 mM |  |  |  |  | 10,000 fold | 322.2 K | 197.3 kcal/mol | 
2 | E149K: GGBP 183C acrylodan conjugate with mutation E149K |  | 1.5 mM | 1.2 mM |  |  |  |  |  | — | d | 34 mM | 27 mM | 40.2 ± 1.3 mM | 1.44 ± 0.04 mM | ~0.5 mM |  |  |  |  | 321 K

The next substances have a lower Kd [2, 9] than those just listed; values first:

Row | Kd ([1]; 25° C., read-out: glucose constant) | Kd [2, 9] | Kd [2, 10] | Kd ([3]; 37° C. (310K), fit of equation 18, read-out: Kd, glucose binding isotherm) | Kd ([4]; read-out: Ca^2+ affinity in the native state at a single site) | Kd ([4]; read-out: calculated Kd for Ca2+, single folded state site) | Kd ([4]; read-out: calculated Kd for Ca2+, single, medium-affinity denatured state) | Kd ([4]; read-out: calculated Kd for Ca2+, two, low-affinity denatured states) | Response Intensity^c [5] | Response Shape^b [5] | Kd [6, 11] | Kd [6, 12] | Kd [8] | Kd [1, 13] | Kd [3, 14] | effect of glucose binding on fluorescence ([5]; 488/580 ratio) | Substance | decrease in the affinity for glucose compared to the wild-type protein [1] | apoTm ([7]; apo-protein, two-state fit) | ΔapoHu ([7]; apo-protein, two-state fit) | Tm/K [7]
3 |  | 0.14 mM | 0.23 mM |  |  |  |  |  | — | d | 4.5 mM | 6.6 mM | 7.5 ± 1 mM | 5.9 ± 1 mM | ~13 mM | increases the 488/580 ratio | A155N: GGBP 183C acrylodan conjugate with mutation A155N |  |  |  | 320 K
4 |  | 0.6 mM | 0.43 mM |  |  |  |  |  | — | d | 2.3 mM | 2.1 mM | 10.8 ± 0.4 mM | 0.46 ± 0.01 mM | ~0.5 mM |  | E149Q: GGBP 183C acrylodan conjugate with mutation E149Q |  |  |  | 322 K
5 |  | 0.38 mM | 0.36 mM |  |  |  |  |  | — | d | 6.8 mM | 5.4 mM | 12.7 ± 15 mM | 0.34 ± 0.01 mM | ~0.5 mM |  | E149S: GGBP 183C acrylodan conjugate with mutation E149S |  |  |  | 320 K
